Read-outs that look alike come from different tables or passages of the source.

In general, EC50 refers to the concentration giving half of the maximal effect.

The test system of the assay is HCV replicon in Huh-7 cells. Briefly: HCV replicon assay (NPT ELISA) for inhibition of HCV replication. The note with it: Hepatitis C virus, Huh-7, 72 h, HCV replicon-containing Huh-7 cells, three days incubation. Format: cell-based. The protocol:
Compounds claimed herein are tested for the ability to inhibit viral replication of the Hepatitis C replicon in cultured cells in which the HCV replicon construct has been incorporated. The HCV replicon system was described by Bartenschlager, et. al (Science, 285, pp. 110-113 (1999)). The replicon system is predictive of in vivo anti-HCV activity; compounds that are active in humans uniformly evidence activity in the replicon assay.
In this assay HCV replicon containing cells are treated with different concentrations of the test compound to ascertain the ability of the test compound to suppress replication of the HCV replicon. As a positive control, HCV replicon-containing cells are treated with different concentrations of interferon alpha, a known inhibitor of HCV replication. The replicon assay system includes Neomycin Phosphotransferase (NPT) as a component of the replicon itself in order to detect the transcription of replicon gene products in the host cell. Cells in which the HCV replicon is actively replicating have high levels of NPT; the level of NPT is proportional to HCV replication. […] The NPT level of each sample is measured using a captured ELISA.
A protocol for testing compounds for the ability to inhibit viral replication of the Hepatitis C replicon cultured cells in which the replicon construct has been incorporated, follows.
The HCV replicon contains, 5′-3′, the HCV-IRES, the neomycin phosphotransferase (neo) gene, the IRES of encephalomyocarditis virus, which directs translation of HCV sequences NS3 to NS5B, and the 3′-NTR. The sequence of the HCV replicon has been deposited in GenBank (Accession no. AJ242652).
The replicon is transfected into Huh-7 cells using standard methods such as electroporation.
The equipment and materials include, but are not limited to, Huh-7 HCV replicon-containing cells, maintenance media (DMEM (Dulbecco's modified Eagle media) supplemented with 10% FBS, L-glutamine, non-essential amino acids, penicillin (100 units/ml), streptomycin (100 micrograms/ml), and 500 micrograms/ml of Geneticin (G418), screening media (DMEM supplemented with 10% FBS, L-glutamine, non-essential amino acids, penicillin (100 units/ml) and streptomycin (100 micrograms/ml)), 96 well tissue culture plates (flat bottom), 96 well plates (U bottom for drug dilution), Interferon alpha for positive control, fixation reagent (such as methanol:acetone), primary antibody (rabbit anti-NPTII), secondary antibody: Eu-N11, and enhancement solution.
HCV replicon-containing cells support high levels of viral RNA replicon replication when their density is suitable. Over-confluency causes decreased viral RNA replication. Therefore, cells must be kept growing in log phase in the presence of 500 micrograms/ml of G418. Generally, cells should be passed twice a week at 1: 4-6 dilution. Cell maintenance is conducted as follows:
HCV replicon-containing cells are examined under a microscope to ensure that cells growing well. Cells are rinsed once with PBS and 2 ml trypsin is added. The cell/trypsin mixture is incubated at 37° C. in a CO2 incubator for 3-5 minutes. After incubation 10 ml of complete media is added to stop the trypsinization reaction. Cells are blown gently, put into a 15 ml tube, and spun at 1200 rpm for 4 minutes. The trypsin/medium solution is removed. Medium (5 ml) is added and the cells are mixed carefully. The cells are counted.
The cells are then seeded onto 96-well plates at a density of 6000-7500 cells/100 microliters/well (6-7.5×10^5 cells/10 ml/plate). The plates are then incubated at 37° C. in a 5% CO2 incubator.
Cells are examined under a microscope approximated 24 hours after seeding and prior to adding drugs. If counting and dilution were performed correctly, cells are 60-70% confluent and nearly all cells should attach and spread evenly in the well.
HCV replicon-containing cells are rinsed with once PBS once; 2 mls of trypsin are then added. Cells are incubated at 37° C. in a 5% CO2 incubator for 3-5 minutes. […]

For `COc1ccc2c(O[C@@H]3C[C@H]4C(=O)NC5(C(=O)NS(=O)(=O)C6CC6)CC5/C=C\CCCC(=O)N[C@@H](CC(=O)OC(C)(C)C)C(=O)N4C3)cc(-c3ccccc3)nc2c1` (stereo partly drawn) [Compound 14, tert-butyl 2-((2R,6S,16aS,Z)-14a-(cyclopropylsulfonylcarbamoyl)-2-(7-methoxy-2-phenylquinolin-4-yloxy)-5,8,16-trioxo-1,2,3,5,6,7,8,9,10,11,13a,14,14a,15,16,16a-hexadecahydrocyclopropa[n]pyrrolo [2,1-c][1,4,7]triazacyclopentadecin-6-yl)acetate], the EC50 (read-out: EC50) is under 1 µM.
On the same count and under the same terms, with `C=CCCCC(=O)N[C@@H](C(=O)N1C[C@H](Oc2cc(-c3ccccc3)nc3cc(OC)ccc23)C[C@H]1C(=O)N[C@]1(C(=O)NS(=O)(=O)C2CC2)C[C@H]1C=C)C(C)(C)C` [Compound 7, (2S,4R)-N-((1R,2S)-1-(cyclopropylsulfonylcarbamoyl)-2-vinylcyclopropyl)-1-((R)-2-hex-5-enamido-3,3-dimethylbutanoyl)-4-(7-methoxy-2-phenylquinolin-4-yloxy)pyrrolidine-2-carboxamide] the figure was 1 to 10 µM.
Regarding `C=CCCCC(=O)N[C@@H](C(=O)N1C[C@H](Oc2cc(-c3ccccc3)nc3cc(OC)ccc23)C[C@H]1C(=O)N[C@@]1(C(=O)NS(=O)(=O)C2CC2)C[C@@H]1C=C)C(C)(C)C` [Compound 8, (2S,4R)-N-((1S,2R)-1-(cyclopropylsulfonylcarbamoyl)-2-vinylcyclopropyl)-1-((R)-2-hex-5-enamido-3,3-dimethylbutanoyl)-4-(7-methoxy-2-phenylquinolin-4-yloxy)pyrrolidine-2-carboxamide], where the note is “read-out: EC50”, the concentration giving a half-maximal response (EC50) lay within 1 to 10 µM.
For the compound `CCOC(=O)C12CC1/C=C\CCCC(=O)N(CCCCCC(=O)O)[C@@H](C(C)(C)C)C(=O)N1C[C@H](Oc3cc(-c4ccccc4)nc4cc(OC)ccc34)C[C@H]1C(=O)N2` (stereo partly drawn) [Compound 3, 6-((2R,6S,16aS,Z)-6-tert-butyl-14a-(ethoxycarbonyl)-2-(7-methoxy-2-phenylquinolin-4-yloxy)-5,8,16-trioxo-2,3,5,6,8,9,10,11,13a,14,14a,15,16,16a-tetradecahydrocyclopropa[n]pyrrolo[2,1-c] [1,4,7]triazacyclopentadecin-7(1H)-yl)hexanoic acid], the half-maximal effective concentration (EC50) (read-out: EC50) is over 10 µM.
As for `CCOC(=O)[C@]12C[C@H]1/C=C\CCCC(=O)N[C@@H](C(C)(C)C)C(=O)N1C[C@H](Oc3cc(-c4ccccc4)nc4cc(OC)ccc34)C[C@H]1C(=O)N2` [Compound 2, (2R,6S,13aS,14aS,16aS,Z)-ethyl 6-tert-butyl-2-(7-methoxy-2-phenylquinolin-4-yloxy)-5,8,16-trioxo-1,2,3,5,6,7,8,9,10,11,13a,14,14a,15,16,16a-hexadecahydrocyclopropa[n]pyrrolo[2,1-c] [1,4,7]triazacyclopentadecine-14a-carboxylate], under “read-out: EC50”, the concentration for a half-maximal effect (EC50) was over 10 µM.
`COc1ccc2c(O[C@@H]3C[C@H]4C(=O)N[C@@]5(C(=O)NS(=O)(=O)C6CC6)C[C@@H]5/C=C\CCCC(=O)N(C)[C@@H](C(C)(C)C)C(=O)N4C3)cc(-c3ccccc3)nc2c1` [Compound 11, (2R,6S,13aR,14aS,16aS,Z)-6-tert-butyl-N-(cyclopropylsulfonyl)-2-(7-methoxy-2-phenylquinolin-4-yloxy)-7-methyl-5,8,16-trioxo-1,2,3,5,6,7,8,9,10,11,13a,14,14a,15,16,16a-hexadecahydrocyclopropa[n]pyrrolo[2,1-c] [1,4,7]triazacyclopentadecine-14a-carboxamide] showed an EC50 of at most 10 µM. For the setting “read-out: EC50”, the EC50 was over 10 µM.

Values taken from US8445430B2, “Cyclic carboxamide compounds and analogues thereof as of hepatitis C virus” (Achillion Pharmaceuticals, Inc., priority 2008, dated 2013).
